Source: the CheMixHub ionic liquid set
± gives the uncertainty stated by the source.

Assay: xn = mol fraction of the nth substance listed

CC[n+]1ccn(C)c1.O=S(=O)([O-])O + OCCO
100 kPa
Conditions | viscosity [mPa·s]
303.15 K, x1 = 0.125 | 15 ± 1
303.15 K, x1 = 0.5 | 76 ± 4
308.15 K, x1 = 0.25 | 24 ± 1
313.15 K, x1 = 0.143 | 12 ± 1
313.15 K, x1 = 0.33 | 30 ± 1
318.15 K, x1 = 0.167 | 12 ± 1
323.15 K, x1 = 0.33 | 21 ± 1

CCCC[n+]1cccc(C)c1.O=S(=O)([N-]S(=O)(=O)C(F)(F)F)C(F)(F)F + CC(C)O
Conditions | electrical conductivity [S/m]
298.15 K, 101.3 kPa, x2 = 0.3381 | 0.642 ± 0.013

CCCC[n+]1ccn(C)c1.F[P-](F)(F)(F)(F)F + CCCC[n+]1ccn(C)c1.F[B-](F)(F)F
101 kPa
Conditions | viscosity [mPa·s]
298.15 K, x1 = 0.1034 | 116.1 ± 3.4
298.15 K, x1 = 0.833 | 227 ± 12
298.15 K, x1 = 0.8877 | 237 ± 13
299.15 K, x1 = 0.1034 | 110.2 ± 3.2
299.15 K, x1 = 0.2095 | 121.3 ± 3.9
299.15 K, x1 = 1 | 259 ± 15
301.15 K, x1 = 0.0568 | 91.6 ± 2.2
301.15 K, x1 = 0.1034 | 99.5 ± 2.6
301.15 K, x1 = 1 | 232 ± 12
302.15 K, x1 = 0.0568 | 87.1 ± 2
302.15 K, x1 = 0.3825 | 118.8 ± 3.7
302.15 K, x1 = 0.4647 | 124.4 ± 4.1
303.15 K, x1 = 0.0568 | 82.9 ± 1.8
305.15 K, x1 = 0.6928 | 136.5 ± 4.8
305.15 K, x1 = 0.945 | 166.1 ± 6.9
307.15 K, x1 = 0.3825 | 92.5 ± 2.2
307.15 K, x1 = 0.833 | 136.1 ± 4.9
307.15 K, x1 = 0.945 | 149.7 ± 5.7
308.15 K, x1 = 0.2095 | 77.4 ± 1.6
308.15 K, x1 = 0.3825 | 88.1 ± 2.1
308.15 K, x1 = 0.5385 | 98.8 ± 2.4
308.15 K, x1 = 1 | 156 ± 6.2

CC(CC(C)(C)C)CP(=O)([O-])CC(C)CC(C)(C)C.CCCCCCCCCCCCCC[P+](CCCCCC)(CCCCCC)CCCCCC + CCCCCCCCCCCC + O
Conditions | viscosity [mPa·s]
303.15 K, 100 kPa, x2 = 0, x3 = 0.8861 | 119.5 ± 7.9

CCCCCCCC/C=C\CCCCCCCC(=O)O + CC[N+](CC)(CC)CC.[Cl-]
100 kPa, x2 = 0.25
Conditions | viscosity [mPa·s]
293.1 K | 268.5 ± 8.8
313.2 K | 95.4 ± 1.7
323.2 K | 61.9 ± 0.9

CN(C)C=O + CCCC[n+]1ccn(C)c1.F[B-](F)(F)F
Conditions | viscosity [mPa·s]
298.15 K, 101.33 kPa, x1 = 1 | 0.8 ± 0.16
333.15 K, 100 kPa, x2 = 0 | 0.559 ± 0.007

COC[n+]1ccccc1.O=S(=O)([N-]S(=O)(=O)C(F)(F)F)C(F)(F)F + O
101 kPa, x1 = 0.8483
Conditions | electrical conductivity [S/m] | viscosity [mPa·s]
298.1 K | – | 37.4 ± 0.9
298.15 K | 0.608 | –
303 K | – | 30.6 ± 0.7
333 K | – | 12 ± 0.3

CCCC[n+]1ccn(C)c1.[O-][Cl+3]([O-])([O-])[O-] + CCO
viscosity [mPa·s], 101 kPa
Conditions | x2 = 0.592 | x2 = 0.637 | x2 = 0.79 | x2 = 0.86
303.15 K | – | 8.7 ± 4 | 4 | 3.6
313.15 K | 7.4 | 6.7 | – | –

CN1CCCC1=O + CC[n+]1ccn(C)c1.COS(=O)(=O)[O-]
Conditions | viscosity [mPa·s]
313.15 K, 101 kPa, x1 = 1 | 1.31 ± 0.29

CCCC[n+]1ccn(C)c1.O=S(=O)([N-]S(=O)(=O)C(F)(F)F)C(F)(F)F + CCCO
298 K, 100 kPa
Conditions | electrical conductivity [S/m] | viscosity [mPa·s]
x1 = 0.02 | 0.137 ± 0.0014 | –
x1 = 0.05 | – | 2.742 ± 0.016
x1 = 0.06 | 0.348 ± 0.0035 | –
x1 = 0.07 | 0.3949 ± 0.0039 | –
x1 = 0.1 | 0.5104 ± 0.0051 | 3.685 ± 0.024
x1 = 0.1996 | – | 5.689 ± 0.047
x1 = 0.2 | 0.7444 ± 0.0074 | –
x1 = 0.3 | 0.8144 ± 0.0081 | –
x1 = 0.3005 | – | 8.179 ± 0.084
x1 = 0.3996 | – | 11.32 ± 0.14
x1 = 0.4 | 0.804 ± 0.08 | –
x1 = 0.4995 | – | 15.01 ± 0.22
x1 = 0.5 | 0.7509 ± 0.0075 | –
x1 = 0.5478 | – | 17.08 ± 0.27
x1 = 0.6 | 0.686 ± 0.0069 | –
x1 = 0.6957 | – | 24.54 ± 0.47
x1 = 0.7 | 0.6239 ± 0.0062 | –
x1 = 0.8 | 0.5324 ± 0.0053 | –
x1 = 0.8024 | – | 32.15 ± 0.69
x1 = 0.9 | 0.461 ± 0.046 | –
x1 = 0.9018 | – | 40.15 ± 0.95
x1 = 1 | – | 49.7 ± 1.3
